Reference: patent publication US6156700A, “3-(1,2-Benzisothiazol- and isoxazol-5-yl)-2,4(1H,3H)-pyrimidinedione or thione and 3-(1,2-benzisothiazol- and isoxazol-5-yl)-4(3H)-pyrimidinone or thione herbicidal agents” (American Cyanmid Company, priority 1998, dated 2000)

Key:
[1] = test system: Ragweed, Common, Ambrosia artemisifolia; experiment: Postemergence herbicidal evaluation, AMBEL; assay type: in vivo, L.
Method in brief: (§1)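 Seedlings grown about two weeks were sprayed with compound in 50/50 acetone/water containing 0.5% TWEEN 20 at rates equivalent to about 0.0157–0.500 kg/ha, nozzle at 40 psi. Injury was rated visually 0–9 versus control four to five weeks after treatment; replicate tests averaged.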

[2] = test system: ECHORC Watergrass (Calif.); experiment: Postemergence weed control, flooded paddy (Table IV); assay type: in vivo, Echinochloa oryzoides; parameters: scale not given here
Excerpt: (§2) Plastic containers containing weeds which are 3 to 5 cm tall and rice seedlings at the 1.5 to 2.5 leaf stage are flooded with water. The water is maintained at 1.5 to 3 cm above the soil surface for the duration of the experiment. Test compounds are applied as aqueous/acetone mixtures 50/50 v/v directly into the flood water to provide the equivalent of about 0.0313 to 0.500 kg/ha of active ingredient. The treated containers are placed on greenhouse benches and cared for in accordance with conventional greenhouse procedures. Three to four weeks after treatment, the test is terminated and each container is examined and herbicidal effect rated according to the rating system provided in Example 185. The compounds evaluated are reported by compound number given in Example 185.

[3] = test system: Velvetleaf, Abutilon theophrasti; experiment: Preemergence herbicidal evaluation, ABUTH; assay type: in vivo, Medic.; conditions: 0.2500 kg/ha
Excerpt: (§3) Results of herbicide evaluation are expressed on a rating scale (0-9). The scale is based upon a visual observation of plant stand, vigor, malformation, size, chlorosis and overall plant appearance as compared with a control.
(§4) The preemergence herbicidal activity of the test compounds of the present invention is exemplified by the following tests in which the seeds of a variety of monocotyledonous and dicotyledonous plants are separately mixed with potting soil and planted on top of approximately one inch of soil in separate pint cups. After planting, the cups are sprayed with the selected aqueous acetone solution containing test compound in sufficient quantity to provide the equivalent of about 0.0156 to 0.500 kg per hectare of test compound per cup. The treated cups are then placed on greenhouse benches, watered and cared for in accordance with conventional greenhouse procedures. From four to five weeks after treatment, the tests are terminated and each cup is examined and rated according to the rating system provided in Example 185.
(§5) The compounds evaluated are reported by compound number given in Example 185.

[4] = test system: MOOVA Monochoria; experiment: Postemergence weed control, flooded paddy (Table IV); assay type: in vivo, Monochoria vaginalis; parameters: scale not given here
Excerpt: as §2

[5] = test system: ORYSAT Rice, Tebonnet; experiment: Tolerance of transplanted rice to post-transplant application (Table III); assay type: in vivo, Oryza sativa; parameters: scale not given here; conditions: crop tolerance
Description: The tolerance of transplanted rice to post-transplanted herbicide applications is determined as follows: two ten-day-old rice seedlings (cv. Tebonnet) are transplanted into silt loam soil in 32 oz. plastic containers with a diameter of 10.5 cm and no drainage holes. After transplanting, the containers are flooded and the water level is maintained at 1.5 to 3 cm above the soil surface. Three days after transplanting, the flooded soil surface of the containers is treated with the selected aqueous/acetone 50/50 v/v mixture containing the test compounds to provide the equivalent of about 0.0313 to 0.500 kg/ha of active ingredient. The treated containers are placed on greenhouse benches, watered such that the water level is maintained as stated above, and cared for in accordance with conventional greenhouse procedures. Three to four weeks after treatment, the test is terminated and each container is examined and herbicidal effect rated according to the rating system provided in Example 185. The compounds evaluated are reported by compound number given in Example 185.

[6] = test system: Barnyardgrass, Echinochloa crus-galli; experiment: Preemergence herbicidal evaluation, ECHCG; assay type: in vivo, (L.) Beau; conditions: 0.2500 kg/ha
Excerpt: as §3, §4, §5

[7] = test system: CYPIR Rice Flatsedge; experiment: Preemergence weed control, flooded paddy (Table III); assay type: in vivo, Cyperus iria; parameters: scale not given here
Description: (§6) Preemergence herbicidal activity under flooded paddy conditions is determined as follows: plant seeds or propagating organs are planted in the top 0.5 cm of silt loam soil in 32 oz. plastic containers with a diameter of 10.5 cm and no drainage holes. Water is added to these containers and maintained at 1.5 to 3 cm above the soil surface for the duration of the experiment. The test compounds are applied as aqueous/acetone mixtures 50/50 v/v pipetted directly into the flood water to give the equivalent of about 0.0313 to 0.500 kg/ha of active ingredient. The treated containers are placed on greenhouse benches and cared for in accordance with conventional greenhouse procedures. Three to four weeks after treatment, the test is terminated and each container is examined and herbicidal effect rated according to the rating system provided in Example 185. The compounds evaluated are reported by compound number given in Example 185.

[8] = test system: Sicklepod, Cassia obtusifolia; experiment: Postemergence herbicidal evaluation, CASOB; assay type: in vivo, L.
Method in brief: as §1

[9] = test system: Corn, Field, Zea mays; experiment: Preemergence herbicidal evaluation, ZEAMX; assay type: in vivo, L.; conditions: 0.2500 kg/ha
Excerpt: as §3, §4, §5

[10] = test system: Velvetleaf, Abutilon theophrasti; experiment: Postemergence herbicidal evaluation, ABUTH; assay type: in vivo, Medic.
Method in brief: as §1

[11] = test system: ECHORC Watergrass (Calif.); experiment: Preemergence weed control, flooded paddy (Table III); assay type: in vivo, Echinochloa oryzoides; parameters: scale not given here
Description: as §6

[12] = test system: Rice, Tebonnet, Oryza sativa; experiment: Preemergence herbicidal evaluation, ORYSAT; assay type: in vivo, (L.) Tebonnet; conditions: 0.2500 kg/ha
Excerpt: as §3, §4, §5

[13] = test system: Foxtail, Green, Setaria viridis; experiment: Preemergence herbicidal evaluation, SETVI; assay type: in vivo, (L.) Beau; conditions: 0.2500 kg/ha
Excerpt: as §3, §4, §5

[14] = test system: Ragweed, Common, Ambrosia artemisifolia; experiment: Preemergence herbicidal evaluation, AMBEL; assay type: in vivo, L.; conditions: 0.2500 kg/ha
Excerpt: as §3, §4, §5

[15] = test system: Morningglory Spp., Ipomoea Spp.; experiment: Postemergence herbicidal evaluation, IPOSS; assay type: in vivo; conditions: 0.2500 kg/ha
Description: In the tests, seedling plants are grown in jiffy flats for about two weeks. The test compounds are dispersed in 50/50 acetone/water mixtures containing 0.5% TWEEN®20, a polyoxyethylene sorbitan monolaurate surfactant of Atlas Chemical Industries, in sufficient quantities to provide the equivalent of about 0.0157 kg to 0.500 kg per hectare of active compound when applied to the plants through a spray nozzle operating at 40 psi for a predetermined time. After spraying, the plants are placed on greenhouse benches and are cared for in accordance with conventional greenhouse procedures. From four to five weeks after treatment, the seedling plants are examined and rated according to the rating system set forth below. Where more than one test is involved for a given compound, the data are averaged.
as §3

[16] = test system: Galium, Galium aparine; experiment: Postemergence herbicidal evaluation, GALAP; assay type: in vivo
Method in brief: as §1

SMILES	herbicide rating (0-9) ([1]; 0.2500 kg/ha)	herbicidal effect rating ([2]; 0.1250 kg/ha)	herbicidal effect rating ([2]; 0.2500 kg/ha)	herbicidal effect rating ([2]; 0.5000 kg/ha)	herbicide rating (0-9) [3]	herbicidal effect rating ([4]; 0.1250 kg/ha)	herbicidal effect rating ([4]; 0.2500 kg/ha)	herbicidal effect rating ([4]; 0.5000 kg/ha)	herbicidal effect rating ([5]; 0.0313 kg/ha)	herbicidal effect rating ([5]; 0.0625 kg/ha)	herbicidal effect rating ([5]; 0.1250 kg/ha)	herbicidal effect rating ([5]; 0.2500 kg/ha)	herbicidal effect rating ([5]; 0.5000 kg/ha)	herbicide rating (0-9) [6]	herbicidal effect rating ([7]; 0.0313 kg/ha)	herbicidal effect rating ([7]; 0.0625 kg/ha)	herbicidal effect rating ([7]; 0.1250 kg/ha)	herbicidal effect rating ([7]; 0.2500 kg/ha)	herbicidal effect rating ([7]; 0.5000 kg/ha)	herbicide rating (0-9) ([8]; 0.2500 kg/ha)	also measured
COc1ccc(C)cc1-c1nsc2ccc(-n3c(=O)cc(C(F)(F)F)n(C)c3=O)cc12 [Compound 1, 3-[3-(6-Methoxy-m-tolyl)-1,2-benzisothiazol-5-yl]-1-methyl-6-(trifluoromethyl)-2,4(1H,3H)-pyrimidinedione]	9.0	6.5	8.0	9.0	9.0	4.5	5.5	6.5	4.7	4.7	5.3	7.7	7.0	9.0	9.0	9.0	9.0	9.0	9.0	8.0	herbicide rating (0-9) ([1]; 0.0630 kg/ha): 9.0; herbicide rating (0-9) ([8]; 0.0630 kg/ha): 9.0; herbicide rating (0-9) [9]: 6.5; herbicide rating (0-9) ([10]; 0.0630 kg/ha): 9.0; herbicide rating (0-9) ([10]; 0.2500 kg/ha): 9.0; herbicidal effect rating ([11]; 0.0313 kg/ha): 9.0; herbicidal effect rating ([11]; 0.0625 kg/ha): 9.0; herbicidal effect rating ([11]; 0.1250 kg/ha): 9.0; herbicidal effect rating ([11]; 0.2500 kg/ha): 9.0; herbicidal effect rating ([11]; 0.5000 kg/ha): 9.0; herbicide rating (0-9) [12]: 7.5; herbicide rating (0-9) [13]: 9.0; herbicide rating (0-9) [14]: 9.0; herbicide rating (0-9) [15]: 9.0; herbicide rating (0-9) ([16]; 0.0630 kg/ha): 9.0; herbicide rating (0-9) ([16]; 0.2500 kg/ha): 9.0
COC(=O)COc1ccc(C)cc1-c1nsc2ccc(-n3c(=O)cc(C(F)(F)F)n(C)c3=O)cc12 [Compound 2, Methyl {{2-{5-[3,6-dihydro-3-methyl-4-(trifluoromethyl) -2,6-dioxo-1(2H)-pyrimidinyl]-1,2-benzisothiazol-3-yl]-p-tolyl}oxy}acetate]	9.0	7.0	9.0	9.0	9.0	9.0	9.0	9.0	2.0	3.0	3.0	5.0	9.0	8.3	8.0	9.0	9.0	9.0	9.0	9.0	herbicide rating (0-9) ([1]; 0.0630 kg/ha): 9.0; herbicide rating (0-9) ([8]; 0.0630 kg/ha): 6.5; herbicide rating (0-9) [9]: 5.6; herbicide rating (0-9) ([10]; 0.0630 kg/ha): 9.0; herbicide rating (0-9) ([10]; 0.2500 kg/ha): 9.0; herbicidal effect rating ([11]; 0.0313 kg/ha): 9.0; herbicidal effect rating ([11]; 0.0625 kg/ha): 9.0; herbicidal effect rating ([11]; 0.1250 kg/ha): 9.0; herbicidal effect rating ([11]; 0.2500 kg/ha): 9.0; herbicidal effect rating ([11]; 0.5000 kg/ha): 9.0; herbicide rating (0-9) [12]: 7.7; herbicide rating (0-9) [13]: 9.0; herbicide rating (0-9) [14]: 9.0; herbicide rating (0-9) [15]: 9.0; herbicide rating (0-9) ([16]; 0.0630 kg/ha): 9.0; herbicide rating (0-9) ([16]; 0.2500 kg/ha): 9.0
COC(=O)C(C)Oc1ccc(C)cc1-c1nsc2ccc(-n3c(=O)cc(C(F)(F)F)n(C)c3=O)cc12 (stereo not shown) [Compound 3]	9.0	0.0	2.0	4.0	9.0	9.0	9.0	9.0	2.0	2.0	3.0	4.0	4.0	8.3	9.0	9.0	9.0	9.0	9.0	9.0	herbicide rating (0-9) ([1]; 0.0630 kg/ha): 9.0; herbicide rating (0-9) ([8]; 0.0630 kg/ha): 9.0; herbicide rating (0-9) [9]: 7.3; herbicide rating (0-9) ([10]; 0.0630 kg/ha): 9.0; herbicide rating (0-9) ([10]; 0.2500 kg/ha): 9.0; herbicidal effect rating ([11]; 0.0313 kg/ha): 9.0; herbicidal effect rating ([11]; 0.0625 kg/ha): 9.0; herbicidal effect rating ([11]; 0.1250 kg/ha): 9.0; herbicidal effect rating ([11]; 0.2500 kg/ha): 9.0; herbicidal effect rating ([11]; 0.5000 kg/ha): 9.0; herbicide rating (0-9) [12]: 6.8; herbicide rating (0-9) [13]: 9.0; herbicide rating (0-9) [14]: 9.0; herbicide rating (0-9) [15]: 9.0; herbicide rating (0-9) ([16]; 0.0630 kg/ha): 9.0
Cn1c(C(F)(F)F)cc(=O)n(-c2ccc3snc(-c4ccccc4)c3c2)c1=O [Compound 4, 1-Methyl-3-(3-phenyl-1,2-benzisothiazol-5-yl)-6-(trifluoromethyl)-2,4(1H,3H)-pyrimidinedione]	9.0	9.0	9.0	9.0	9.0	9.0	9.0	9.0	4.0	7.0	7.0	8.0	8.0	9.0	9.0	9.0	9.0	9.0	9.0	9.0	herbicide rating (0-9) [9]: 7.0; herbicide rating (0-9) ([10]; 0.2500 kg/ha): 9.0; herbicidal effect rating ([11]; 0.0313 kg/ha): 9.0; herbicidal effect rating ([11]; 0.0625 kg/ha): 9.0; herbicidal effect rating ([11]; 0.1250 kg/ha): 9.0; herbicidal effect rating ([11]; 0.2500 kg/ha): 9.0; herbicidal effect rating ([11]; 0.5000 kg/ha): 9.0; herbicide rating (0-9) [12]: 7.0; herbicide rating (0-9) [13]: 9.0; herbicide rating (0-9) [14]: 9.0; herbicide rating (0-9) [15]: 9.0; herbicide rating (0-9) ([16]; 0.2500 kg/ha): 9.0
